Measured values reported in publication PMC9901219 (European Journal of Medicinal Chemistry, 2023).

System: F1G cells

Cc1cccc2nc(CSC(=S)NCc3cccnc3)cn12 [Compound 1, (5-methylimidazo[1,2-a]pyridin-2-yl)methyl (pyridin-3-ylmethyl)carbamodithioate]
cytotoxicity: without cytoxicity at the active doses
